This is an account of results in US20090143396A1, “Sulfonyl-Substituted Aryl Compounds as Modulators of Peroxisome Proliferator Activated Receptors” (priority 2005, published 2009).

Common to all, as to type: cell-based, murine and human
Conditions in all cases: GAL4 chimeric receptor, 20-24 hours treatment

One assay has as its target T1, PPAR-delta (UniProt Q03181).
T1 sequence (Q03181 1-441): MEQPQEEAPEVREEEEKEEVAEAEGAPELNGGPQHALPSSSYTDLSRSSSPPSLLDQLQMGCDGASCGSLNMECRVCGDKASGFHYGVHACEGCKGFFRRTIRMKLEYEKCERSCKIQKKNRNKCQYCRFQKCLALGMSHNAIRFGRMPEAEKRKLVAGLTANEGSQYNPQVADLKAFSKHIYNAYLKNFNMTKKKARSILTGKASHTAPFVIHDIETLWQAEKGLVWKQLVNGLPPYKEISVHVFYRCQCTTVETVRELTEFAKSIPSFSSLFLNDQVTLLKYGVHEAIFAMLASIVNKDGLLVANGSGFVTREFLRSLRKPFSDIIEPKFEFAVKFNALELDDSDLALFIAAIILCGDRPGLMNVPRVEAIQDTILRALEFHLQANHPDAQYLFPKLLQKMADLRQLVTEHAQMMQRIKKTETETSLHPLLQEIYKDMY
The assay can be described thus: Transient transfection transactivation assay in CV-1 cells, GAL4-PPAR-delta LBD chimera, luciferase reporter. From the text:
(§1) Compounds may be screened for functional potency in transient transfection assays in CV-1 cells for their ability to activate the PPAR subtypes (transactivation assay). A previously established chimeric receptor system was utilized to allow comparison of the relative transcriptional activity of the receptor subtypes on the same synthetic response element and to prevent endogenous receptor activation from complicating the interpretation of results. See, for example, Lehmann, J. M.; Moore, L. B.; Smith-Oliver, T. A; Wilkinson, W. O.; Willson, T. M.; Kliewer, S. A., An antidiabetic thiazolidinedione is a high affinity ligand for peroxisome proliferator-activated receptor […], J. Biol. Chem., 1995, 270, 12953-6. The ligand binding domains for murine and human PPAR-alpha, PPAR-gamma, and PPAR-delta are each fused to the yeast transcription factor GAL4 DNA binding domain. CV-1 cells were transiently transfected with expression vectors for the respective PPAR chimera along with a reporter construct containing four or five copies of the GAL4 DNA binding site driving expression of luciferase. After 8-16 h, the cells are replated into multi-well assay plates and the media is exchanged to phenol-red free DME medium supplemented with 5% delipidated calf serum. 4 hours after replating, cells were treated with either compounds or 1% DMSO for 20-24 hours. Luciferase activity was then assayed with Britelite (Perkin Elmer) following the manufacturer's protocol and measured with either the Perl in Elmer Viewlux or Molecular Devices Acquest (see, for example, Kliewer, S. A., et. al. Cell 1995, 83, 813-819). Rosiglitazone is used as a positive control in the […] assay. Wy-14643 and GW7647 is used as a positive control in the […] assay. GW501516 is used as the positive control in the PPARδ assay.
(§2) Compounds of Examples 1-10 were assayed to measure their biological activity with respect to their EC50 values and efficacy for modulating PPAR-alpha, PPAR-gamma, and PPAR-delta as set forth in Table 1.
In general terms: A reporter such as luciferase makes a cellular process visible.

The target of the next assay is T2, PPAR-gamma (UniProt P37231).
T2 sequence (P37231 1-505): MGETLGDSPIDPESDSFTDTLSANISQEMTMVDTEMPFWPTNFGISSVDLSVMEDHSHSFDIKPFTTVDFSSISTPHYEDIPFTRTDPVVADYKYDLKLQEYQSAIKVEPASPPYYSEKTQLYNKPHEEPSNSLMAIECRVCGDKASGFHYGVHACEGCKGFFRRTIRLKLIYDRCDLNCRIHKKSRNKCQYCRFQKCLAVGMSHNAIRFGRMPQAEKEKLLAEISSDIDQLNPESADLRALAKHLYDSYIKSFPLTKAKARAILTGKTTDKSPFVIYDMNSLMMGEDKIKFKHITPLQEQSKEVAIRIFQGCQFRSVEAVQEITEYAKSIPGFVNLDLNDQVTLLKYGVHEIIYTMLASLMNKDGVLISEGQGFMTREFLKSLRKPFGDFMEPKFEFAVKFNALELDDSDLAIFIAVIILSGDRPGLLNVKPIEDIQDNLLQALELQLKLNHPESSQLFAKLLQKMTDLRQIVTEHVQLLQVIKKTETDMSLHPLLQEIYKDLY
The assay can be described thus: Transient transfection transactivation assay in CV-1 cells, GAL4-PPAR-gamma LBD chimera, luciferase reporter.
Description: as §1, §2

A further assay has as its target T3, PPAR-alpha (UniProt Q07869).
T3 sequence (Q07869 1-468): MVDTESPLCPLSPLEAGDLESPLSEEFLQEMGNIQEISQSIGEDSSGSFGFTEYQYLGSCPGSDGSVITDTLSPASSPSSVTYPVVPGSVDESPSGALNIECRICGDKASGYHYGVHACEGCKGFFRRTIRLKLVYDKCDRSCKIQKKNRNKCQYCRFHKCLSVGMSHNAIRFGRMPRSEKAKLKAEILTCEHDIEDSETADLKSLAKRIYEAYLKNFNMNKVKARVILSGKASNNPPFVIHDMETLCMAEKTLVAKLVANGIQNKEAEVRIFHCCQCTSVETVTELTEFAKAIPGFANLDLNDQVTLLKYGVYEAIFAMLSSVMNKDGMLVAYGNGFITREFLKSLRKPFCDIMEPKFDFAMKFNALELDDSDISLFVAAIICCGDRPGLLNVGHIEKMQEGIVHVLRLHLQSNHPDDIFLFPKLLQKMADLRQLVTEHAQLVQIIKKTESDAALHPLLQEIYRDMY
The assay is described as follows: Transient transfection transactivation assay in CV-1 cells, GAL4-PPAR-alpha LBD chimera, luciferase reporter.
Description: as §1, §2

`Cc1ccc(S(=O)(=O)N2[C@H](C)CN(Cc3ccc(OC(F)(F)F)cc3)C[C@@H]2C)cc1CC(=O)O` [Example 1, {5-[2,6-Dimethyl-4-(4-trifluoromethoxy-benzyl)-piperazine-1-sulfonyl]-2-methyl-phenyl}-acetic acid]: the concentration for a half-maximal effect (EC50) was less than 5 µM on PPAR-delta, greater than 100 µM at PPAR-gamma and less than 5 µM at PPAR-alpha.

On to `Cc1ccc(S(=O)(=O)N2[C@H](C)CN(Cc3ccc(C(F)(F)F)cc3)C[C@@H]2C)cc1CC(=O)O` [Example 2, {5-[2,6-Dimethyl-4-(4-trifluoromethyl-benzyl)-piperazine-1-sulfonyl]-2-methyl-phenyl}-acetic acid], for which the results for the concentration giving a half-maximal response (EC50) at PPAR-delta, on PPAR-gamma and on PPAR-alpha were less than 5 µM, 5 to 100 µM and less than 5 µM, respectively.

On to `Cc1ccc(S(=O)(=O)N2CCN(Cc3ccc(OC(F)(F)F)cc3)CC2)cc1CC(=O)O` [Example 3, {2-Methyl-5-[4-(4-trifluoromethoxy-benzyl)-piperazine-1-sulfonyl]-phenyl}-acetic acid], for which the half-maximal effective concentration (EC50) at PPAR-delta, on PPAR-gamma and on PPAR-alpha was less than 5 µM throughout.

For the compound `Cc1ccc(S(=O)(=O)N2CCN(Cc3ccc(C(F)(F)F)cc3)CC2)cc1CC(=O)O` [Example 4, {2-Methyl-5-[4-(4-trifluoromethyl-benzyl)-piperazine-1-sulfonyl]-phenyl}-acetic acid], the concentration for a half-maximal effect (EC50) on PPAR-delta, at PPAR-gamma and at PPAR-alpha was less than 5 µM in each case.

As to `Cc1cc(CC(=O)O)cc(S(=O)(=O)N2[C@H](C)CN(Cc3ccc(OC(F)(F)F)cc3)C[C@@H]2C)c1` [Example 5, {3-[2,6-Dimethyl-4-(4-trifluoromethoxy-benzyl)-piperazine-1-sulfonyl]-5-methyl-phenyl}-acetic acid], the concentration giving a half-maximal response (EC50) at PPAR-delta was less than 5 µM; at PPAR-gamma it was greater than 100 µM; on PPAR-alpha, 5 to 100 µM.

For the compound `C[C@@H]1CN(Cc2ccc(OC(F)(F)F)cc2)C[C@H](C)N1S(=O)(=O)c1cccc(CC(=O)O)c1` [Example 6, {3-[2,6-Dimethyl-4-(4-trifluoromethoxy-benzyl)-piperazine-1-sulfonyl]-phenyl}-acetic acid], the concentration for a half-maximal effect (EC50) was less than 5 µM on PPAR-delta, less than 5 µM on PPAR-gamma and 5 to 100 µM on PPAR-alpha.

`Cc1ccc(S(=O)(=O)N2[C@H](C)CN(Cc3ccc(Cl)c(Cl)c3)C[C@@H]2C)cc1CC(=O)O` [Example 7, {5-[4-(3,4-Dichloro-benzyl)-2,6-dimethyl-piperazine-1-sulfonyl]-2-methyl-phenyl}-acetic acid]: the EC50 on PPAR-delta is less than 5 µM; on PPAR-gamma, greater than 100 µM; at PPAR-alpha, less than 5 µM.

Take `C#Cc1cc(CC(=O)O)cc(S(=O)(=O)N2CCN(Cc3ccc(OC(F)(F)F)cc3)CC2)c1` [Example 8, 2-{3-Ethynyl-5-[-4-(4-trifluoromethoxybenzyl)piperazine-1-ylsulfonyl]phenyl}acetic acid]: the EC50 on PPAR-delta, at PPAR-gamma and at PPAR-alpha was less than 5 µM throughout.

As for `C#Cc1cc(CC(=O)O)cc(S(=O)(=O)N2CCN(Cc3cccc(OC(F)(F)F)c3)CC2)c1` [Example 9, 2-{3-Ethynyl-5-[4-(3-trifluoromethoxybenzyl)piperazine-1-ylsulfonyl]phenyl}acetic acid], the 50% effective concentration (EC50) on PPAR-delta, on PPAR-gamma and at PPAR-alpha was less than 5 µM throughout.

As for `Cc1ccc(S(=O)(=O)N2[C@H](C)CN(C(=O)Cc3ccc(OC(F)(F)F)cc3)C[C@@H]2C)cc1CC(=O)O` [Example 10, 2-(5-((2R,6S)-2,6-dimethyl-4-(2-(4-(trifluoromethoxy)phenyl)acetyl)piperazin-1-ylsulfonyl)-2-methylphenyl)acetic acid], the EC50 at PPAR-delta is less than 5 µM; on PPAR-gamma, greater than 100 µM; at PPAR-alpha, greater than 100 µM.

The EC50 is the concentration giving half of the maximal effect. A low value points to a more potent agent.
